Results on five compounds are retold here after US9636365B2, “Antibacterial food composition” (NUTRIVERCELL, priority 2009, dated 2017).

Molecules are shown by their SMILES. Where two headings read alike, the source gives them in different places.

Data set [1] has as its system E. coli strain sensitive to ATBs (S), NECS892841. Nature of the data set: MIC, dilution in liquid medium (CA-SFM), first S strain. The data set is classed as cell-based, Escherichia coli. As to conditions: added composition at sub-inhibitory concentration (120 or 250 mg/L), 18 h, 37° C. The text has this: (§1) Six strains of Escherichia coli of different origins (cystitises, acute pyelonephritises, urinary chronic carriage), of different sensitivities to the main antibiotics customarily used in urinary infections and with different virulences, were selected from the strain library of the laboratory of the INSERM Espri 26 team: • 2 strains sensitive to ATBs: NECS892841 and NECS30090 • 2 strains resistant to quinolones: NECS858785 and NECS864598 • 2 strains secreting BLSE: NEC892420 and NEC118564
(§2) Three compositions were evaluated: • a composition comprising propolis powder on maltose dextrin • a composition comprising propolis powder on maltose dextrin and PACs of type A • a composition comprising maltose dextrin
(§3) Three antibiotics were studied: • ofloxacin • ceftriaxone • cefixime
(§4) The whole of the tubes were put into an oven at 37° C. overnight without stirring.

Data set [2] has as its system E. coli strain sensitive to ATBs (S), NECS30090. Kind of data set: MIC, dilution in liquid medium (CA-SFM), second S strain. The data set is classed as cell-based, Escherichia coli. The settings on record: second S strain row; added composition at sub-inhibitory concentration (120 or 250 mg/L); 18 h, 37° C.
From the text: as §1, §2, §3, §4

Data set [3] relates to E. coli strain resistant to quinolones (OFX R), NECS858785. Kind of data set: MIC, dilution in liquid medium (CA-SFM), first OFX R strain. The data set is classed as cell-based, Escherichia coli. As to conditions: added composition at sub-inhibitory concentration (120 or 250 mg/L), 18 h, 37° C.
From the text: as §1, §2, §3, §4

The subject of data set [4] is E. coli strain resistant to quinolones (OFX R), NECS864598. Nature of the data set: MIC, dilution in liquid medium (CA-SFM), second OFX R strain. The data set is classed as cell-based, Escherichia coli. As to conditions: added composition at sub-inhibitory concentration (120 or 250 mg/L), 18 h, 37° C.
From the text: as §1, §2, §3, §4

Data set [5] has as its system E. coli strain secreting BLSE, NEC892420. Kind of data set: MIC, dilution in liquid medium (CA-SFM), first BLSE strain. The data set is classed as cell-based, Escherichia coli. As to conditions: added composition at sub-inhibitory concentration (120 or 250 mg/L), 18 h, 37° C.
From the text: as §1, §2, §3, §4

The subject of data set [6] is E. coli strain secreting BLSE, NEC118564. Kind of data set: MIC, dilution in liquid medium (CA-SFM), second BLSE strain. The data set is classed as cell-based, Escherichia coli. As to conditions: added composition at sub-inhibitory concentration (120 or 250 mg/L), 18 h, 37° C.
From the text: as §1, §2, §3, §4

Data set [7] is described as follows: Quantification of propolis polyphenols in human urines after ingesting the composition. The data set is classed as in vivo. How it is done: Two healthy volunteers of more than 18 years of age, with efficient contraception and having followed a normal diet, followed a regimen comprising the ingestion of gelatin capsules according to the composition of Example 3.
Two regimens were followed: • taking 6 gelatin capsules, • taking 8 gelatin capsules.
The taking of gelatin capsules was carried out at 8.00 am and the urines were collected by micturition in a sterile flask before ingestion, 1-6 hours after ingestion, 12 hours after ingestion and 24 hours after ingestion.
The collected urines are hydrolyzed by enzymatic hydrolysis (glucuronidase and sulfatase), and the polyphenols are then extracted and purified on Sep-Pack.
The polyphenols of propolis such as pinocembrin and galangin are then characterized and assayed.

As for `C=CC1=C(C(=O)O)N2C(=O)[C@@H](NC(=O)/C(=N\OCC(=O)O)c3csc(N)n3)[C@H]2SC1` [Cefixime, cefixime], the “MIC of the antibiotic” value in data set [1] was determined as 1 µg/mL; in data set [2], 0.5 µg/mL; in data set [3], 0.5 µg/mL; in data set [4], 1 µg/mL; in data set [5], 16 µg/mL; in data set [6], 8 µg/mL.

Consider `CO/N=C(\C(=O)N[C@@H]1C(=O)N2C(C(=O)O)=C(CSc3nc(=O)c(O)nn3C)CS[C@H]12)c1csc(N)n1` [Ceftriaxon, ceftriaxone], for which the “MIC of the antibiotic” value in data set [1] is 1 µg/mL; in data set [2], 0.5 µg/mL; in data set [3], 0.25 µg/mL; in data set [4], 0.5 µg/mL; in data set [5] it was more than 32 µg/mL; in data set [6], 32 µg/mL.

Regarding `O=c1c(O)c(-c2ccccc2)oc2cc(O)cc(O)c12` [Galangin, galangin], in data set [7] (1-6 h after ingestion of 6 gelatin capsules of Example 3, urine hydrolyzed), the “amount in human urines” value was found to be 0.555 mg/L. In data set [7] (human, in vivo, 12 h after ingestion of 6 gelatin capsules of Example 3, read-out: amount in human urines), the concentration at 12 h is 291 ng/mL. Further, the concentration at 24 h in data set [7] (human, in vivo, 24 h after ingestion of 6 gelatin capsules of Example 3, read-out: amount in human urines) amounted to 157 ng/mL; in data set [7] (human, in vivo, 24 h after ingestion of 8 gelatin capsules of Example 3, read-out: amount in human urines), 311 ng/mL.

With `CC1COc2c(N3CCN(C)CC3)c(F)cc3c(=O)c(C(=O)O)cn1c23` (stereo not drawn) [Ofloxacin, ofloxacin], the “MIC of the antibiotic” value was 1 µg/mL in data set [1]; 0.25 µg/mL in data set [2]; 2 µg/mL in data set [3]; 32 µg/mL in data set [4]; more than 32 µg/mL in data set [5]; more than 32 µg/mL in data set [6].

As for `O=C1C[C@@H](c2ccccc2)Oc2cc(O)cc(O)c21` [Pinocembrin, pinocembrin], the “amount in human urines” value in data set [7] (human, in vivo) is recorded as 3.344 mg/L. In data set [7] (human, in vivo, amount in human urines), this compound showed a concentration at 12 h of 1140 ng/mL.
